One assay addresses CDK7/CycH/MAT1 (Homo sapiens, UniProt P50613). As to the kind of experiment: Kinase Glo (ADP-Glo) biochemical assay, CDK7. Conditions: CDK7/CycH/MAT1 40 ng, ATP 1 μM, 60 minutes at RT, luminescence. The method, boiled down: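 Enzyme (40 ng), RB-CTF peptide substrate (200 ng or 400 ng) and 1 μM ATP reacted in HEPES pH 7.5 buffer with MgCl2, MnCl2, DTT and Na3VO4 for 60 min at RT. Ten-point compound dilutions were tested from 30 μM final. ADP formed was read by ADP-Glo luminescence.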
In general terms: Kinase-Glo measures the ATP left after a reaction by luminescence.

The test system of assay [1] is MiaPaCa2 pancreatic cancer cell line. The assay can be described thus: Cell viability assay (Cell Titer Glo), MiaPaCa2. Format: cell-based. Conditions: Homo sapiens, MIA PaCa-2, 72 hour incubation. The procedure:
(§1) Materials: • Cell Lines (Treated according to ATCC guidelines) • Cell Titer Glo (Promega Cat #G7572) • DMSO • 96-well White Tissue Culture Treated Plates (Perkin Elmer Cat #60005680)
(§2) Cells were seeded in a white 96-well tissue culture treated plate at a density of 1500 cells in 90 μL of media per well and allowed to settle overnight. A ten point serial dilution of drugs was prepared at 10×concentration in media with the final assay concentrations starting at 30 μM, 10 μM, 3 μM, 1 μM, 0.3 μM . . . 0 μM. A dilution of DMSO was included as a control. The assay was set up by adding 10 μL of the corresponding drug to each well in duplicate, followed by a 72 hour incubation at 37° C., 5% CO2. Cell viability was quantified by adding 90 μL of Cell Titer Glo to each well and incubating at room temperature for 10 minutes. The reaction was quantified by measuring luminescence using the Envision Plate Reader. Data was analyzed using Graphpad Prism 7 software.
Background: Cellular ATP, detected with luciferase, serves as a proxy for viable cell number.

The test system of assay [2] is HPAC pancreatic cancer cell line. As to the kind of experiment: Cell viability assay (Cell Titer Glo), HPAC. Format: cell-based. Conditions: Homo sapiens, HPAC, 72 hour incubation. The procedure: as §1, §2
Assay [3] has as its system MDA-MB-231 breast cancer cell line. As to the kind of experiment: Cell viability assay (Cell Titer Glo), MDA-MB-231. Format: cell-based. Conditions: Homo sapiens, MDA-MB-231, 72 hour incubation. As to the method:
as §1, §2

The subject of the next assay is MDA-MB436 cells. The assay can be described thus: Cell viability assay (Cell Titer Glo), MDA-MB436. Format: cell-based. To be noted: Homo sapiens, MDA-MB-436; Table 7b; 72 hour incubation. The procedure: as §2, with “Cell Viability Assay Materials: • Cell Lines (Treated according to ATCC guidelines) • Cell Titer Glo (Promega Cat #G7572) • DMSO • 96-well White Tissue Culture Treated Plates (Perkin Elmer Cat #60005680) Method: Cells” for “Cells”, “μ[…]” for “μM, 10 μM, 3 μM, 1 μM, 0.3 μM . . . 0 μM. A”

A further assay deals with MDA-MB468 cells. As to the kind of experiment: Cell viability assay (Cell Titer Glo), MDA-MB468. The class given is cell-based. To be noted: Homo sapiens, MDA-MB-468; Table 7b; 72 hour incubation. As to the method:
as §2, with “Cell Viability Assay Materials: • Cell Lines (Treated according to ATCC guidelines) • Cell Titer Glo (Promega Cat #G7572) • DMSO • 96-well White Tissue Culture Treated Plates (Perkin Elmer Cat #60005680) Method: Cells” for “Cells”, “μ[…]” for “μM, 10 μM, 3 μM, 1 μM, 0.3 μM . . . 0 μM. A”

The subject of assay [4] is Kasumi1 leukemia cancer cell line. The assay can be described thus: Cell viability assay (Cell Titer Glo), Kasumi1. Format: cell-based. Conditions: Homo sapiens, Kasumi 1, Table 7a, 72 hour incubation. As to the method:
as §1, §2

The test system of assay [5] is A2780 ovarian cancer cell line. The assay can be described thus: Cell viability assay (Cell Titer Glo), A2780. Conditions: Homo sapiens, A2780, Table 7a, 72 hour incubation. The class given is cell-based. As to the method:
as §1, §2

The subject of assay [6] is A673 Ewingsarcoma cell line. As to the kind of experiment: Cell viability assay (Cell Titer Glo), A673. Conditions: Homo sapiens, A673, Table 7a, 72 hour incubation. Format: cell-based. The procedure:
as §1, §2

The mark [7] stands for this setting: Table 7a, pancreatic cancer cell line.
[8] abbreviates: Table 7a, breast cancer cell line.

Structures are written as SMILES. pIC50: −log10 of the molar value. Structures can show the parent of a compound that is named as a salt. Where two headings read alike, the source gives them in different places.

Nine compounds from patent US20230348475A1, “IMIDAZOPYRIDAZINE AND IMIDAZOPYRAZINE COMPOUNDS AS INHIBITORS OF CDK7” (THE TRANSLATIONAL GENOMICS RESEARCH INSTITUTE, priority 2020, published 2023) can be followed below.

Sequence of CDK7/CycH/MAT1 (P50613 whole entry): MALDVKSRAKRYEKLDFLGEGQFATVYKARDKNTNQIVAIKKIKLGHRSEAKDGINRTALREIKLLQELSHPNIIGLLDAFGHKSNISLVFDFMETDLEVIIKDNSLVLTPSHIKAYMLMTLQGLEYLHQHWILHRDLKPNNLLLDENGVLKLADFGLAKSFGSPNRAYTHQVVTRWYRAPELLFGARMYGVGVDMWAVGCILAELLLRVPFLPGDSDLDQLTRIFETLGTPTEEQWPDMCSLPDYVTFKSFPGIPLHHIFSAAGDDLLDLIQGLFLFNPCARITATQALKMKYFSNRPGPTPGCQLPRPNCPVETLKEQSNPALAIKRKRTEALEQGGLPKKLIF
Sequence of CDK7/CycH/MAT1 (P51946 whole entry partner): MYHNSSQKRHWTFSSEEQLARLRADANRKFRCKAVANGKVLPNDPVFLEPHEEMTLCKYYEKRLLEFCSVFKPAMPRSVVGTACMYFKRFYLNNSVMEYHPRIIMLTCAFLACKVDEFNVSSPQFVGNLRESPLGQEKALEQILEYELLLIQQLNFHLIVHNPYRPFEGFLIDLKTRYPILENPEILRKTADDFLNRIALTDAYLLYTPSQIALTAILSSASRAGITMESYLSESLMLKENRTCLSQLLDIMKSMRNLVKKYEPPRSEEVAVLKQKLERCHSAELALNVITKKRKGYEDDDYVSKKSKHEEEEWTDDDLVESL
Sequence of CDK7/CycH/MAT1 (P51948 whole entry partner): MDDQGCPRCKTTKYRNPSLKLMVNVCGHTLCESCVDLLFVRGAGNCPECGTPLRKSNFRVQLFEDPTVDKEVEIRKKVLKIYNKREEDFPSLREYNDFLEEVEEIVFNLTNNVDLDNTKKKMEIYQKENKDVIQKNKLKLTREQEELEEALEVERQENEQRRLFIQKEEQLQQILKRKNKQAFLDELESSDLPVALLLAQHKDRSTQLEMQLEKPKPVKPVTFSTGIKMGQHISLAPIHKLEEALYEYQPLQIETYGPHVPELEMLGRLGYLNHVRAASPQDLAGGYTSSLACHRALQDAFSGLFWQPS

Regarding `Fc1cccc(Nc2cc(O[C@H]3CCCNC3)nn3c(C4CC4)cnc23)c1` [Compound I-1], on CDK7/CycH/MAT1, the IC50 (as a rule, the concentration at which inhibition is half-maximal) was less than 100 nM. For the same compound, the pIC50 – broadly, the negative decadic logarithm of the IC50, by convention in mol/L – in assay [1] (Table 7b, read-out: IC50 MIA PaCa2) is more than 6.00; in assay [2] (Table 7b), 5.30 to 6.00; in [3] (Table 7b, read-out: IC50 MDA-MB231), 5.30 to 6.00; with MDA-MB436 cells, 5.30 to 6.00; in the assay on MDA-MB468 cells it was 5.30 to 6.00.
As for `CC(C)c1cnc2c(NCc3ccccc3OC(F)(F)F)cc(NC[C@@H]3CNCCO3)nn12` [Compound 46, (S)-3-isopropyl-N6-(morpholin-2-ylmethyl)-N8-(2-(trifluoromethoxy)benzyl)imidazo[1,2-b]pyridazine-6,8-diamine hydrochloride], the IC50 against CDK7/CycH/MAT1 is less than 100 nM. Further, the pIC50 was 5.30 to 6.00 in assay [1] (setting [7]); 5.30 to 6.00 in assay [2] (setting [7]); less than 5.30 in assay [4]; 5.30 to 6.00 in assay [3] (setting [8]); 5.30 to 6.00 in assay [5]; 5.30 to 6.00 in assay [6].
Consider `COc1ccccc1CNc1cc(SC2CCCNC2)nn2c(C(C)C)cnc12` (centres unmarked) [Compound 36, hydrochloride], for which, at CDK7/CycH/MAT1, the IC50 is less than 100 nM. In addition, the pIC50 was 5.30 to 6.00 in assay [1] (setting [7]); 5.30 to 6.00 in assay [2] (setting [7]); 5.30 to 6.00 in [4]; 5.30 to 6.00 in [3] (setting [8]); more than 6.00 in assay [5]; 5.30 to 6.00 in [6].
Turning to `CC(C)c1cnc2c(NCc3ccccc3OC(F)(F)F)cc(OC3CCNCC3)nn12` [Compound 43, 3-isopropyl-6-(piperidin-4-yloxy)-N-(2-(trifluoromethoxy)benzyl)imidazo[1,2-b]pyridazin-8-amine hydrochloride], the IC50 against CDK7/CycH/MAT1 is less than 100 nM. Besides, the pIC50 in assay [1] (setting [7]), in [2] (setting [7]), in assay [4], in [3] (setting [8]), in [5] and in [6] was 5.30 to 6.00 each time.
`CC(C)c1cnc2c(Nc3cccc(F)c3)cc(SC3CCNCC3)nn12` [Compound 44, N-(3-fluorophenyl)-3-isopropyl-6-(piperidin-4-ylthio)imidazo[1,2-b]pyridazin-8-amine hydrochloride] returned an IC50 on CDK7/CycH/MAT1 of less than 100 nM. Moreover, the pIC50 in [1] (setting [7]), in assay [2] (setting [7]), in [4], in assay [3] (setting [8]), in assay [5] and in assay [6] was more than 6.00 throughout.
Compound `CC(C)c1cnc2c(NCc3ccccc3OC(F)(F)F)cc(NC3CCNCC3)nn12` [Compound 38, hydrochloride] returned an IC50 on CDK7/CycH/MAT1 of less than 100 nM. Also, the pIC50 in assay [1] (setting [7]), in [2] (setting [7]), in assay [4], in assay [3] (setting [8]), in assay [5] and in assay [6] was 5.30 to 6.00 in each case.
On CDK7/CycH/MAT1, `CC(C)c1cnc2c(Nc3cccc(F)c3)cc(NC3CCNCC3)nn12` [Compound 45, N8-(3-fluorophenyl)-3-isopropyl-N6-(piperidin-4-yl)imidazo[1,2-b]pyridazine-6,8-diamine hydrochloride] had an IC50 of less than 100 nM. In addition, the pIC50 is more than 6.00 in [1] (setting [7]); 5.30 to 6.00 in assay [2] (setting [7]); 5.30 to 6.00 in assay [4]; 5.30 to 6.00 in [3] (setting [8]); 5.30 to 6.00 in [5]; 5.30 to 6.00 in assay [6].
On CDK7/CycH/MAT1, `CC(C)c1cnc2c(N[C@@H](C)c3ccccc3)nc(SC3CCNCC3)cn12` [Compound 32, (S)-3-isopropyl-N-(1-phenylethyl)-6-(piperidin-4-ylthio)imidazo[1,2-α]pyrazin-8-amine dihydrochloride] showed an IC50 of less than 100 nM. Besides, the pIC50 in [1] (setting [7]) was 5.30 to 6.00; in assay [2] (setting [7]) it was 5.30 to 6.00; in assay [4], 5.30 to 6.00; in [3] (setting [8]) it was less than 5.30; in assay [5] it was 5.30 to 6.00; in assay [6], 5.30 to 6.00.
At CDK7/CycH/MAT1, `CC(C)c1cnc2c(Nc3cccc(F)c3)cc(O[C@H]3CCCNC3)nn12` [Compound 39, (S)-N-(3-fluorophenyl)-3-isopropyl-6-(piperidin-3-yloxy)imidazo[1,2-b]pyridazin-8-amine hydrochloride] showed an IC50 of less than 100 nM. Further, the pIC50 in assay [1] (setting [7]), in assay [2] (setting [7]), in assay [4], in assay [3] (setting [8]), in assay [5] and in assay [6] was 5.30 to 6.00 throughout.
